Measured values from a melting point compilation (Tetko et al.).

SMILES | melting point
CCOC(=O)C(C)(/C=C1\C(=O)C2(C)CCC1C2(C)C)/C=C1\C(=O)C2(C)CCC1C2(C)C (stereo not given) | 118 °C
CN(C)c1ccc(C2Nc3nc(C(F)(F)F)nn3C(N)=C2C#N)cc1 (stereo not given) | 164 °C
CCCCCCCC(O)CC (stereo not given) | -5 °C
CCCCC(CC)COC(=O)C=CC(=O)OCC(CC)CCCC (stereo not given) | -10 °C
Nc1ncccc1Br | 66 °C
Cc1cc(N)ccc1N | 64 °C
Cc1cc2nsnc2cc1C | 89 to 90 °C
Nc1nc(N)c2nc[nH]c2n1 | 302 °C
O=S(=O)(Cl)c1cc(Br)ccc1Br | 71 °C
CN(CC(=O)O)N=O | 66.5 °C
CC(C)CS | -145 °C
CCCCOC(N)=O | 51 to 56 °C
S=C=Nc1c(Cl)cc(Cl)cc1Cl | 74 to 76 °C

Further lines, results first:

melting point | SMILES
45 to 47 °C | O=C(O)CCCc1ccc(F)cc1
> 315 °C | O=C(O)c1cc(-c2ccc(-c3cc(C(=O)O)c4ccccc4n3)cc2)nc2ccccc12
29 to 33 °C | O=C(Cl)c1ccc2c(c1)OCCCO2
317 °C | CC(=O)Nc1ccc(N=Nc2ccc([N+]([O-])=Nc3ccc(NC(C)=O)cc3)cc2)cc1
206 °C | COc1ccc(C(=O)N(NC(=O)c2ccccc2)C(C)(C)C)cc1OC
76 to 78 °C | O=C(C=Cc1ccccc1)c1cccs1
289 °C | Nc1c(C=O)cc(C=O)c2nc(-c3ccccc3)c(-c3ccccc3)nc12
169 °C | O=C(O)/C(=C/c1ccccc1F)c1ccccc1
109 to 114 °C | COc1ccc(C(=O)c2cccc(Cl)c2)cc1[N+](=O)[O-]
136 °C | O=C(O)C=Cc1cccc(C(F)(F)F)c1
120 °C | Cc1cccnc1C(N)=S
176 to 178 °C | O=C(NC1(Cc2ccccc2)COCOC1=O)c1ccccc1 (racemic)
